Assay results: patent US20160244390A1, “Etherified Tri-Butylphenol Alkoxylates, Process For Their Preparation And Their Use In Crop Protection Agents” (CLARIANT INTERNATIONAL LTD, priority 2013, published 2016)

Assays:
[1] = Dynamic surface tension by the bubble pressure method (wetting agent effect); assay type: physicochemical; settings: for Dynamic surface tension: 22° C.
Description: The dynamic surface tension was determined by the bubble pressure method (BP2100 tensiometer, Krúss) on a timescale relevant for spray application. The dynamic surface tension was measured for solutions of TBPEM-6 and TBPEM-8 in mains water at room temperature (22° C.) and at the typical spray mixture concentrations of 0.3, 1, and 3 g/l.

[2] = tested on: apple cuticles; assay: Percentage penetration of benzyladenine through apple cuticles with and without TBPEM-6; assay type: in vitro ADME; settings: 0.2 g/l benzyladenine in acetone/mains water, no additive
Description: The method described in the literature (Baur et al., 1997, Pesticide Science 51, 131-152) can be used for determining these properties.
The penetration of the growth promoter benzyladenine (benzylamonopurin) through leaf cuticles was measured at an active ingredient concentration of 0.2 g/l benzyladenine in acetone/mains water, with and without TBPEM-6, at different practically relevant concentrations, 5 hours and 24 hours after application.

| Dynamic surface tension ([1]; 0.3 g/L in mains water, 20 ms) [mN/m] | Dynamic surface tension ([1]; 0.3 g/L in mains water, 100 ms) [mN/m] | Dynamic surface tension ([1]; 0.3 g/L in mains water, 200 ms) [mN/m] | Dynamic surface tension ([1]; 1 g/L in mains water, 20 ms) [mN/m] | Dynamic surface tension ([1]; 1 g/L in mains water, 100 ms) [mN/m] | Dynamic surface tension ([1]; 1 g/L in mains water, 200 ms) [mN/m] | Dynamic surface tension ([1]; 3 g/L in mains water, 20 ms) [mN/m] | Dynamic surface tension ([1]; 3 g/L in mains water, 100 ms) [mN/m] | Dynamic surface tension ([1]; 3 g/L in mains water, 200 ms) [mN/m] | Compound | Suitability as wetting agent from dynamic surface tension ([1]; spray application timescale) | Percentage penetration of benzyladenine ([2]; 5 h) [%] | Percentage penetration of benzyladenine ([2]; 24 h) [%] |
| --- | --- | --- | --- | --- | --- | --- | --- | --- | --- | --- | --- | --- |
| 70.3 | 65.0 | 62.8 | 62.9 | 54.1 | 52.5 | 55.5 | 42.9 | 41.8 | 2,4,6-tributylphenoxy-ethoxy(6) methyl ether [TBPEM-6] | excellent suitability as a rapid wetting agent | – | – |
| 69.9 | 64.6 | 61.4 | 67.3 | 58.6 | 53.2 | 63.4 | 51.8 | 46 | tributylphenol ethoxylate(6) [Sapogenat T 060] | – | – | – |
| – | – | – | – | – | – | – | – | – | c1ccc(CNc2ncnc3nc[nH]c23)cc1 [Benzyladenine, benzyladenine] | – | 2.0 | 3.7 |
